Measured values from patent EP0915099A1, “Antiparallel oligopeptides and hydrophobically complementary oligopeptides, matrices containing them and use thereof in the purification and detection of subtypes of alpha interferon” (ALFA WASSERMANN S.p.A., priority 1997, dated 1999).

System: subtypes of Hu-IFNα
Test: affinity of the peptides in solution and bound to solid supports (affinity chromatography)
Type: binding, human
Settings: both in solution and bound to solid supports
Excerpt: Therefore they can be used, when bound to suitable matrices on solid supports, in affinity chromatography for the separation and purification of the subtype Hu-IFNα8. Moreover, when conveniently functionalized, they can be used for the specific detection of Hu-IFNα8 in analytical techniques like the detection of compounds splitted in SDS-PAGE and transferred on nitrocellulose sheets (SDS-PAGE-blotting) or the detection of compounds immobilized on solid supports (enzyme linked immuno sorbent assay or ELISA). Therefore the matrices on solid supports for the affinity chromatography to which the IFNα-AP, IFNω-AP, IFNα-IC and IFNω-IC oligopeptides are linked and the use thereof in the separation and purification of the Hu-IFNα8 protein are a further object of the invention.
Each of the peptides from number 1 to number 6, at the end of the synthesis, has been linked to a solid support useful for affinity chromatographies, preferably made by a polymeric resin based on acrylamide or agarose, and each matrix functionalized in this way has been packed on a chromatographic column on which, at a neutral pH, a mixture of Hu-IFNα having a specific activity between 1 e 100 x 10^5 international units for each milligram of total proteins (IU/mg) and with a Hu-IFNα concentration between 0.1 and 5 x 10^6 IU has been pressed through. […]

Row | Substance | affinity for subtypes of Hu-IFNα
1 | H-Gly-Phe-His-Asp-Phe-His-Ser-Asp-Asn-Phe-OH (H-GFHDFHSDNF-OH) [IFNω-AP] | only for some subtypes of Hu-IFNα, mainly for the subtype IFNα8
2 | H-Gly-Ser-His-Asp-Phe-Cys-Ser-Asp-Asn-Leu-OH (H-GSHDFCSDNL-OH) [IFNα-AP] | only for some subtypes of Hu-IFNα, mainly for the subtype IFNα8
